Assay results from patent publication US20050282743A1, “Molecular interactions in cells” (Arbor Vita Corporation, priority 2001, published 2005).
Ends that are not written are not given here. Peptide text beside a SMILES is read from it. * marks the point of attachment. Biotin = O=C1N[C@H]2[C@H](CS[C@H]2CCCCC(=O)*)N1

Experiments:
Assay in all cases: G' assay (10 uM PL peptide), results of TABLE 7 and TABLE 12
Type in all cases: binding
[1] = target: T1, PDZ protein (GST-PDZ fusion) (Homo sapiens, UniProt O15018); details: PDZ AIPC, PDZ Domain 1
T1 construct: made in house; host or cells: E. coli (DH5alpha, BL21 or JM109)
Summary of the method: (§1)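 Biotin-PL peptide (N-term label), 10 uM vs GST-PDZ; protein 5 ug/ml by default. A450 nm binned: 1 = 0-1, 2 = 1-2, 3 = 2-3, 4 = 3-4, 5 = >4 on >2 repeats, 0 = no binding.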

[2] = target: T2, PDZ protein (GST-PDZ fusion) (Homo sapiens, UniProt Q13796); details: PDZ hAPXL, PDZ Domain 1
T2 construct: made in house; host or cells: E. coli (DH5alpha, BL21 or JM109)
Summary of the method: as §1

[3] = target: T3, PDZ protein (GST-PDZ fusion) (Homo sapiens, UniProt Q9NZN5); details: PDZ KIAA0382, PDZ Domain 1
T3 construct: made in house; host or cells: E. coli (DH5alpha, BL21 or JM109)
Summary of the method: as §1

[4] = target: T4, PDZ protein (GST-PDZ fusion) (Homo sapiens, UniProt Q9P202); details: PDZ KIAA1526, PDZ Domain 1
T4 construct: made in house; host or cells: E. coli (DH5alpha, BL21 or JM109)
T4 sequence (Q9P202 1-907): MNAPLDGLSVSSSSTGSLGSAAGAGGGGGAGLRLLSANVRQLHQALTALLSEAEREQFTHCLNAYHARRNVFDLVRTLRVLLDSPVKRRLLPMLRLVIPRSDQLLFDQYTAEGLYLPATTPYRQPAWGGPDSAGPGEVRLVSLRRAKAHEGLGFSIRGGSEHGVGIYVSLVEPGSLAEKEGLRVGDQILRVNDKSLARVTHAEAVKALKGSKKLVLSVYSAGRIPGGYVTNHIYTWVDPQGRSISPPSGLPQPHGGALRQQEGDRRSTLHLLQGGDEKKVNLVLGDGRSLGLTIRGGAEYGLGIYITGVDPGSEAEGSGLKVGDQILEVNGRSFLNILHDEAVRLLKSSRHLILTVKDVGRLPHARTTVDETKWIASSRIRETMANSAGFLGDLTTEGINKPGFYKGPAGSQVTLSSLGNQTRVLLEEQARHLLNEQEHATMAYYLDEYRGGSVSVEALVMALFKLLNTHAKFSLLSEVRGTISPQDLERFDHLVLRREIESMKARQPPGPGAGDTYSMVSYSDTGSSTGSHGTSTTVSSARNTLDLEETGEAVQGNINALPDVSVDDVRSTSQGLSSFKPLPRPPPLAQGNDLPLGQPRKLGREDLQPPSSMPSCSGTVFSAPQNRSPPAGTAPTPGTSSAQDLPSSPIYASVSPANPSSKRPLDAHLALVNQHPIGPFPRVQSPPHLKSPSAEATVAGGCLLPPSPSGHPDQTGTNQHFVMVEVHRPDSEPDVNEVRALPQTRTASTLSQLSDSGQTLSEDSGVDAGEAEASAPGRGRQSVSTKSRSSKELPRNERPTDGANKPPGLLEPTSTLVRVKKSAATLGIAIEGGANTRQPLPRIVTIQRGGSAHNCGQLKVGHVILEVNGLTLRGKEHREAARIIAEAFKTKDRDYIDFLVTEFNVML
Summary of the method: as §1

[5] = target: T5, PDZ protein (GST-PDZ fusion) (Homo sapiens, UniProt O14907); details: PDZ TIP1, PDZ Domain 1
T5 construct: made in house; host or cells: E. coli (DH5alpha, BL21 or JM109)
T5 sequence (O14907 1-124): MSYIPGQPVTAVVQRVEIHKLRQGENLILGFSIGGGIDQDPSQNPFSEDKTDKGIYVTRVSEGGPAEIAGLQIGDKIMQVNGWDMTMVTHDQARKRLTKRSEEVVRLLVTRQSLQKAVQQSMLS
Summary of the method: as §1

[6] = target: T6, PDZ protein (GST-PDZ fusion) (Homo sapiens, UniProt P57105); details: PDZ Outer Membrane, PDZ Domain 1
T6 construct: made in house; host or cells: E. coli (DH5alpha, BL21 or JM109)
T6 sequence (P57105 1-145): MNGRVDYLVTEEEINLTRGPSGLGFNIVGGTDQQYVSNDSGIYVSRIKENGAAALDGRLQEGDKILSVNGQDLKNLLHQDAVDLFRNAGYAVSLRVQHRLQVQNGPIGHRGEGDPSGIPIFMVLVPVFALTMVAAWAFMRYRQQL
Summary of the method: as §1

[7] = target: T7, PDZ protein (GST-PDZ fusion) (Homo sapiens, UniProt Q12959)
T7 construct: made in house; host or cells: E. coli (DH5alpha, BL21 or JM109)
Summary of the method: as §1

[8] = target: T8, PDZ protein (GST-PDZ fusion) (Homo sapiens, UniProt Q15700)
T8 construct: made in house; host or cells: E. coli (DH5alpha, BL21 or JM109)
Summary of the method: as §1

T7 sequence (Q12959 whole entry, the tested form may be a part): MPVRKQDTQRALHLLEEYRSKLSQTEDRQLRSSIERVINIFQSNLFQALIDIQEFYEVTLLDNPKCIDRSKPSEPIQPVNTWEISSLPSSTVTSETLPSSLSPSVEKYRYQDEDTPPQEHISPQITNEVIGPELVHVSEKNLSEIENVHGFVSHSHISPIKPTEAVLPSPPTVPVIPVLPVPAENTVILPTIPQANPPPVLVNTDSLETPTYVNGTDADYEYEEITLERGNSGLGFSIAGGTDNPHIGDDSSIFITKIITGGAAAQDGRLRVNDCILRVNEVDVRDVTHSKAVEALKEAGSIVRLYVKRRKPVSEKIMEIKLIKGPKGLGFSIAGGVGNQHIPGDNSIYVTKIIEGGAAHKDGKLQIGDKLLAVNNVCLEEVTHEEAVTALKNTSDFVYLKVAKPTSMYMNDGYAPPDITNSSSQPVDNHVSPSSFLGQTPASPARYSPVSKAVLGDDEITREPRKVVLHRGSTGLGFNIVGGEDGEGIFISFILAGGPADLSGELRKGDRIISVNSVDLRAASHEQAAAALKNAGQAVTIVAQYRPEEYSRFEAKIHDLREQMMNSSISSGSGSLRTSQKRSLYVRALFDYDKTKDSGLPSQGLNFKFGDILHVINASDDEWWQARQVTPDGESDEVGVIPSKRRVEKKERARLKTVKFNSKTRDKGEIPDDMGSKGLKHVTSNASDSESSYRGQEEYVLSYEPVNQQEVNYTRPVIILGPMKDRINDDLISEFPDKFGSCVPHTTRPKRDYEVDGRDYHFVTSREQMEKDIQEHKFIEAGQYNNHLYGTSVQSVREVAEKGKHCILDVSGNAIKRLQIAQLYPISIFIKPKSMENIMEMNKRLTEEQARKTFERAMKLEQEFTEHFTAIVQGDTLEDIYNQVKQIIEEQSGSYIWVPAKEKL
T2 sequence (Q13796 whole entry, the tested form may be a part): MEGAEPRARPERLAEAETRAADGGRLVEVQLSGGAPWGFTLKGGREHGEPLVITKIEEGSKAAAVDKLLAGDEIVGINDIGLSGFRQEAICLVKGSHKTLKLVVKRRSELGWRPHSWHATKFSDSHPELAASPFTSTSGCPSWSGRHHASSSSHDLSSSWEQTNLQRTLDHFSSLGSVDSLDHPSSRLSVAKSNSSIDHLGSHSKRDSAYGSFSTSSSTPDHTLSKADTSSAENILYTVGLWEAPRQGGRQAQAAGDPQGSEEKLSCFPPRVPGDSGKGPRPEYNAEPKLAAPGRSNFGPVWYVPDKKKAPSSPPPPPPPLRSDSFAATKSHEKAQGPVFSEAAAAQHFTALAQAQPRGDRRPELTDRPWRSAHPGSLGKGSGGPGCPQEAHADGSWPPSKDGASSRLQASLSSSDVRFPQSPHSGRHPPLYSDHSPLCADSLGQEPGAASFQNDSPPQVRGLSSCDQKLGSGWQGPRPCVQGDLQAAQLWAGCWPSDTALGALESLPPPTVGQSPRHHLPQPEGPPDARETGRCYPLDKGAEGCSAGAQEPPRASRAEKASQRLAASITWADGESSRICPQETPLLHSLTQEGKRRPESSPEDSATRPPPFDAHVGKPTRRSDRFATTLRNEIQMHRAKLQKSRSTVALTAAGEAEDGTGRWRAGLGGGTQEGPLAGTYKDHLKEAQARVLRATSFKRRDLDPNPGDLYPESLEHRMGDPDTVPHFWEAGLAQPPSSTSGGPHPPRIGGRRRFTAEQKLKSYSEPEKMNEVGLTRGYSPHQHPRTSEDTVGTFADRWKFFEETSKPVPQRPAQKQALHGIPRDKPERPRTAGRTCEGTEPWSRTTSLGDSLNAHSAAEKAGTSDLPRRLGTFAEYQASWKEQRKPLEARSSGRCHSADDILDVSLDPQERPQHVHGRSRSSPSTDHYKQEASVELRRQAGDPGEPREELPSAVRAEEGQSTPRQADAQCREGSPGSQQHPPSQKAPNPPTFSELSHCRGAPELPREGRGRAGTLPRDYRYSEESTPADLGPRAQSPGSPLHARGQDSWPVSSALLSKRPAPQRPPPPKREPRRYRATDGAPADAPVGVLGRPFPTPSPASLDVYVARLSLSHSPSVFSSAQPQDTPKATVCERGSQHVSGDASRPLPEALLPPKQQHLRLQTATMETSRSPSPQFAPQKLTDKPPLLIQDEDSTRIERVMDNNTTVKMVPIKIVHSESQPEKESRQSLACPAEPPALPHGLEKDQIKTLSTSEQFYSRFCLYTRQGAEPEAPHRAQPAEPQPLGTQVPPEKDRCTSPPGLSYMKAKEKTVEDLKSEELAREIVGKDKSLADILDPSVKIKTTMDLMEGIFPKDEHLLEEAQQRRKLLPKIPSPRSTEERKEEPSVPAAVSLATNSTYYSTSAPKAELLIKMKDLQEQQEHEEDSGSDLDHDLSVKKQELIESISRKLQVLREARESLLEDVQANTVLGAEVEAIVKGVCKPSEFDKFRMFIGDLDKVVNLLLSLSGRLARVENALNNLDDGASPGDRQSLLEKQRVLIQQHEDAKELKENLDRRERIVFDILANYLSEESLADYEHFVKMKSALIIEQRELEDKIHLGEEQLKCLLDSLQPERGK
T3 sequence (Q9NZN5 whole entry, the tested form may be a part): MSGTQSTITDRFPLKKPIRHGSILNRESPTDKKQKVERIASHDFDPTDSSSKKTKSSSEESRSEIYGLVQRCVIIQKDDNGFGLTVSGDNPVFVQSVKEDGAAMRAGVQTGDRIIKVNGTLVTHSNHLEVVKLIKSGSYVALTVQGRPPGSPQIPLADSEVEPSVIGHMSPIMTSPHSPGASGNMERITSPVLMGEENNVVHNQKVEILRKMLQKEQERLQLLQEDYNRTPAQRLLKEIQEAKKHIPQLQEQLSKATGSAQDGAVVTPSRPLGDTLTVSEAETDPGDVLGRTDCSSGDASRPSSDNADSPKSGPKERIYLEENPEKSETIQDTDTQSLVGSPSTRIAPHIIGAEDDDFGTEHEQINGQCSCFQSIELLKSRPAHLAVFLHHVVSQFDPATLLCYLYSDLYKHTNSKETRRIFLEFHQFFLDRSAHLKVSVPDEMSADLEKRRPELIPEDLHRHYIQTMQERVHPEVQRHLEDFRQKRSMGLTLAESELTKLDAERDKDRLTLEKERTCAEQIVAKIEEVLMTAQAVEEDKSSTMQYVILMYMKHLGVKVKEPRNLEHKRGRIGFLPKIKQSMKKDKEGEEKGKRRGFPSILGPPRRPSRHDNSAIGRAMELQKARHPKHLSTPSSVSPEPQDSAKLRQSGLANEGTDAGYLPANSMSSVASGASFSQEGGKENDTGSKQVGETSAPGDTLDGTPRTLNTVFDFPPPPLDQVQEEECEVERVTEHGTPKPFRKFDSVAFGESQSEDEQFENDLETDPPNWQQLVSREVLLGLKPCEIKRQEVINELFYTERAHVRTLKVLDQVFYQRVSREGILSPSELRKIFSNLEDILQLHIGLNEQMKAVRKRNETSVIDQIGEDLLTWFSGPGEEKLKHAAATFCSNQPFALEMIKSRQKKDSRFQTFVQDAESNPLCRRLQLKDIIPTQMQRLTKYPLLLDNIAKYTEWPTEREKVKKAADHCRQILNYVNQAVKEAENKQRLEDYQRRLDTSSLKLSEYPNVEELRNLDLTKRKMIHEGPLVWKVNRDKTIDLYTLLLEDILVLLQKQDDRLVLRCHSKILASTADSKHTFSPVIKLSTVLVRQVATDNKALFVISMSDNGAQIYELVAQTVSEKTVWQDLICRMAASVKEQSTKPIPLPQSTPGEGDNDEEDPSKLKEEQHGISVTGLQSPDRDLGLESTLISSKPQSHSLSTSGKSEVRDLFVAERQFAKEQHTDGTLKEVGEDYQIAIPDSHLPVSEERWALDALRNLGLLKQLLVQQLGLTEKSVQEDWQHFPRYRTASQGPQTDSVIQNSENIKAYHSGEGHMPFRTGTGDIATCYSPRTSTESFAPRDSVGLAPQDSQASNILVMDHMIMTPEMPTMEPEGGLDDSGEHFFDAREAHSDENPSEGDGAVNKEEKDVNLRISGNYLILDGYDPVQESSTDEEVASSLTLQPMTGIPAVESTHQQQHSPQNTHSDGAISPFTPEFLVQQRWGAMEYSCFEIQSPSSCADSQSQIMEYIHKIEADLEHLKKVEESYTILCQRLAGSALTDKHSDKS
T8 sequence (Q15700 whole entry, the tested form may be a part): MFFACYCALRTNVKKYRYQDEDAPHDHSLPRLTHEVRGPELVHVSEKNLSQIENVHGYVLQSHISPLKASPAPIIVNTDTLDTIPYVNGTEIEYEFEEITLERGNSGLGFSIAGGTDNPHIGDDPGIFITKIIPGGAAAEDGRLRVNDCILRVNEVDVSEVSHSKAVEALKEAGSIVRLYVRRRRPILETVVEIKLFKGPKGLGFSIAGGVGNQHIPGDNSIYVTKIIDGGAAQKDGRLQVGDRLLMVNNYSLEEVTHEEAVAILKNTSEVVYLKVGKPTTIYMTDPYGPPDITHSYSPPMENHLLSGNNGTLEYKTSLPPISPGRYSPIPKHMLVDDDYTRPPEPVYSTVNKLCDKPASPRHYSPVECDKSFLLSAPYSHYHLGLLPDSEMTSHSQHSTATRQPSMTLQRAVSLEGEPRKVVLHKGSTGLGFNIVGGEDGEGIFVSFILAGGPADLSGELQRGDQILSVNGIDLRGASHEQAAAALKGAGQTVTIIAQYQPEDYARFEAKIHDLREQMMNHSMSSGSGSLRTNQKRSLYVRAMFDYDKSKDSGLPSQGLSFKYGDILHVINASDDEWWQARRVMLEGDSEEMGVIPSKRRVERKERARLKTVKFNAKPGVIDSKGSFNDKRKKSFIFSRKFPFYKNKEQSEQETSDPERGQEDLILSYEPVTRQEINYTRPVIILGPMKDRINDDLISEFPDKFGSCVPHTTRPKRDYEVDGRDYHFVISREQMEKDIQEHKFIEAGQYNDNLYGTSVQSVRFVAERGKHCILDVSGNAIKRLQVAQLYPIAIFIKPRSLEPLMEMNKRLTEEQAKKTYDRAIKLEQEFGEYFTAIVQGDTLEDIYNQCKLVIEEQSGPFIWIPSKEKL

Classification [1] | Classification [2] | Classification [3] | Classification [4] | Classification [5] | Compound | Classification [6] | Classification ([7]; PDZ DLG1, PDZ Domain 1) | Classification ([7]; PDZ DLG1, PDZ Domain 1, 2) | Classification ([7]; PDZ DLG1, PDZ Domain 2) | Classification ([8]; PDZ DLG2, PDZ Domain 1) | Classification ([8]; PDZ DLG2, PDZ Domain 2) | Classification ([1]; PL peptide 10 uM, Protein Optimal Conc 5) | Classification ([7]; PDZ DLG1, PDZ Domain 3)
1 (A450 nm 0-1) | 2 (A450 nm 1-2) | 2 (A450 nm 1-2) | 1 (A450 nm 0-1) | – | VHDAESSDEDGYDWGPATDL (Biotin-VHDAESSDEDGYDWGPATDL) [zona occludens 3 (ZO-3)] | – | – | – | – | – | – | – | –
3 (A450 nm 2-3) | 1 (A450 nm 0-1) | 1 (A450 nm 0-1) | 3 (A450 nm 2-3) | 5 (A450 nm of 4 more than 2× repeated) | TQGFPGPATWRRISSLESEV | 5 (A450 nm of 4 more than 2× repeated) | 5 (A450 nm of 4 more than 2× repeated) | 5 (A450 nm of 4 more than 2× repeated) | 5 (A450 nm of 4 more than 2× repeated) | 4 (A450 nm 3-4) | 5 (A450 nm of 4 more than 2× repeated) | – | –
– | 5 (A450 nm of 4 more than 2× repeated) | 5 (A450 nm of 4 more than 2× repeated) | 2 (A450 nm 1-2) | 2 (A450 nm 1-2) | CC[C@H](C)[C@H](NC(=O)CNC(=O)[C@H](CO)NC(=O)[C@H](Cc1ccccc1)NC(=O)[C@@H](NC(=O)[C@H](CS)NC(=O)CNC(=O)CNC(=O)[C@H](C)NC(=O)[C@@H]1CCCN1C(=O)[C@@H](NC(=O)[C@@H]1CCCN1C(=O)CCCC[C@@H]1SC[C@@H]2NC(=O)N[C@@H]21)[C@@H](C)CC)[C@@H](C)O)C(=O)N[C@@H](Cc1ccccc1)C(=O)N1CCC[C@H]1C(=O)N[C@H](C(=O)N[C@@H](CC(C)C)C(=O)N[C@H](C(=O)N[C@@H](CO)C(=O)N1CCC[C@H]1C(=O)N[C@@H](CC(C)C)C(=O)O)[C@@H](C)O)[C@@H](C)O [KIA 1481] (Biotin-PIPAGGCTFSGIFPTLTSPL-OH; C-terminus assumed) | – | – | – | – | – | – | – | –

Compound | Classification [1] | Classification [2] | Classification [3] | Classification [4] | Classification [5] | Classification [6] | Classification ([7]; PDZ DLG1, PDZ Domain 1) | Classification ([7]; PDZ DLG1, PDZ Domain 1, 2) | Classification ([7]; PDZ DLG1, PDZ Domain 2) | Classification ([8]; PDZ DLG2, PDZ Domain 1) | Classification ([8]; PDZ DLG2, PDZ Domain 2) | Classification ([1]; PL peptide 10 uM, Protein Optimal Conc 5) | Classification ([7]; PDZ DLG1, PDZ Domain 3)
CSCC[C@H](NC(=O)[C@H](C)NC(=O)[C@H](CCCNC(=N)N)NC(=O)CNC(=O)[C@@H](NC(=O)[C@H](Cc1c[nH]c2ccccc12)NC(=O)[C@H](CCCNC(=N)N)NC(=O)CNC(=O)CCCC[C@@H]1SC[C@@H]2NC(=O)N[C@@H]21)[C@@H](C)O)C(=O)N[C@@H](CO)C(=O)N[C@@H](C)C(=O)N[C@@H](Cc1c[nH]c2ccccc12)C(=O)N[C@@H](CCCCN)C(=O)N1CCC[C@H]1C(=O)N[C@H](C(=O)N[C@@H](CCCNC(=N)N)C(=O)N[C@@H](CCCNC(=N)N)C(=O)N[C@@H](CCC(=O)O)C(=O)N[C@H](C(=O)N[C@@H](CCC(=O)O)C(=O)N[C@H](C(=O)O)C(C)C)[C@@H](C)O)[C@@H](C)O [HPV E6 #35 (modified)] (Biotin-GRWTGRAMSAWKPTRRETEV-OH; C-terminus assumed) | – | – | 2 (A450 nm 1-2) | 3 (A450 nm 2-3) | 5 (A450 nm of 4 more than 2× repeated) | 5 (A450 nm of 4 more than 2× repeated) | 5 (A450 nm of 4 more than 2× repeated) | 5 (A450 nm of 4 more than 2× repeated) | 5 (A450 nm of 4 more than 2× repeated) | 5 (A450 nm of 4 more than 2× repeated) | 5 (A450 nm of 4 more than 2× repeated) | 1 (A450 nm 0-1) | 3 (A450 nm 2-3)
CC(C)C[C@H](NC(=O)[C@H](C)NC(=O)[C@@H](NC(=O)[C@@H](NC(=O)[C@H](Cc1c[nH]cn1)NC(=O)[C@H](CC(C)C)NC(=O)CNC(=O)[C@H](CCC(N)=O)NC(=O)CNC(=O)CNC(=O)[C@H](C)NC(=O)[C@H](C)NC(=O)[C@H](CCCNC(=N)N)NC(=O)[C@H](C)NC(=O)[C@H](CO)NC(=O)[C@H](CC(=O)O)NC(=O)[C@H](CC(=O)O)NC(=O)[C@H](Cc1c[nH]c2ccccc12)NC(=O)[C@H](C)NC(=O)CCCC[C@@H]1SC[C@@H]2NC(=O)N[C@@H]21)C(C)C)[C@@H](C)O)C(=O)O [LPAP] (Biotin-AWDDSARAAGGQGLHVTAL-OH; C-terminus assumed) | – | 1 (A450 nm 0-1) | 5 (A450 nm of 4 more than 2× repeated) | 1 (A450 nm 0-1) | – | – | – | – | – | – | – | – | –
